Data from US7374890B2, “Methods for identifying compounds that modulate ΔTRα2 activity” (University of Massachusetts, priority 2000, dated 2008).
pKd: −log10 of the molar value.

Legend:
ΔTRα1 = ΔTRα1 (Rattus norvegicus, UniProt P63059); test: [125I]rT3 displacement from cell-free translated ΔTRα1; format: binding; conditions: cell-free translated polypeptide
Source text: (§1) ΔTRα1 and ΔTRα2 polypeptides were synthesized by cell-free translation of appropriate segments of the rat ΔTRα1 and ΔTRα2 cDNA using the coupled transcription-translation kit from Promega® (TNT) according to the manufacturer's instructions.

[1] = molecular target: T1, ΔTRα2 (T4 Inactivating Protein; TIP) (Rattus norvegicus, UniProt P63059); test: rT3 binding displacement in nuclei-free extracts of cultured rat astrocytes; conditions: ΔTRα2-containing nuclei-free astrocyte extracts; rT3 as ligand; read-out: Kd, displacement of rT3
T1 construct: ΔTRα2 is encoded by exons 8-10 resulting in an approximately 25 kd protein
T1 sequence (P63059 whole entry, stated change not applied): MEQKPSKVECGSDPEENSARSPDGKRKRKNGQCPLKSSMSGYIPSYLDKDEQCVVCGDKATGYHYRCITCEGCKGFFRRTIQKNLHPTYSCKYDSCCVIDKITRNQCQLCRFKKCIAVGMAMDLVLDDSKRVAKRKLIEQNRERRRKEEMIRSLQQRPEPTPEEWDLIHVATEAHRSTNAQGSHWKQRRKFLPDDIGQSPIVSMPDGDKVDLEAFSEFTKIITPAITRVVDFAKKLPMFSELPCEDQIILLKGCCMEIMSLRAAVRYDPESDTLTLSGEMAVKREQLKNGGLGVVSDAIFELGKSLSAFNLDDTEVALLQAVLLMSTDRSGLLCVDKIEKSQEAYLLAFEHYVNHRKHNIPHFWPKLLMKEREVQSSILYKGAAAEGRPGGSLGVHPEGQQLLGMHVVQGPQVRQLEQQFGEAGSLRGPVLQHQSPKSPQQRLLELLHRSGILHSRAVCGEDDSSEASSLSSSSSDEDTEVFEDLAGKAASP
Description: The properties of thyroid hormone binding to non-nuclear components of the cell were examined using ΔTRα2 (T4 Inactivating Protein; TIP)-containing, nuclei-free extracts of cultured rat astrocytes. […] Both rT3 and T4 specifically displace rT3 with Kd's of approximately 0.3-0.5 nM.

ΔTRα2 = molecular target: T2, ΔTRα2 (Rattus norvegicus, UniProt P63059); test: [125I]rT3 displacement from cell-free translated ΔTRα2; format: binding; conditions: cell-free translated polypeptide
T2 sequence (P63059 256-492): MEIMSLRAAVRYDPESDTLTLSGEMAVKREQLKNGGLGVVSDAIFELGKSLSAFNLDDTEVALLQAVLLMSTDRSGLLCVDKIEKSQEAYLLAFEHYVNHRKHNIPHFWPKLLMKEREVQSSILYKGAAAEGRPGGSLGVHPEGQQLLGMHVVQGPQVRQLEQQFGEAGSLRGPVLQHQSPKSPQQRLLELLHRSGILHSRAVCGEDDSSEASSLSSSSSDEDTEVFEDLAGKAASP
Source text: as §1

astrocytes = test: subcellular distribution of immunoreactive TRα2-derived proteins in cultured astrocytes; format: cell-based, rat; conditions: serum-free medium, treated 20 minutes, 0.1% bovine serum albumin carrier
Source text: The subcellular distribution of immunoreactive thyroid hormone receptor-derived proteins in primary brain cell cultures and in cultured astrocytes was examined. Primary brain cell cultures were fixed with 0.4% paraformaldehyde, permeabilized with Triton X-100®, and stained for TRα-derived proteins using specific antisera directed against the unique C-termini of TRα1 and TRα2 proteins, and visualized by staining with a secondary tagged antibody. Consistent with previous observations (Kolodny et al., 1985, Endocrinol. 117: 1848-1857), immunoreactive TRα1 proteins were found in the nuclei of astrocytes and neuronal cells. However, TRα2-derived proteins were not localized to the nucleus in either astrocytes or neurons, but appeared as donut shaped structures located throughout the astrocyte or as discreet punctate signals along neuronal fibers. This latter pattern is diagnostic for synapses in neuronal cultures (Wong et al., 1999, Neurosci. 89:221-233), and is consistent with the presence of ΔTRα2-derived protein in nerve terminals.
The subcellular distribution of immunoreactive TRα2-derived proteins in cultured astrocytes was influenced by the presence of either T4 or rT3. In these experiments astrocytes were grown in serum-free medium, treated for 20 minutes with either […] or rT3, and fixed, permeabilized, and stained as described above. […]

[2] = test system: cerebellar granule neurons; test: release of FM1-43-loaded synaptic vesicles from cerebellar granule neurons under continuous stimulus; format: cell-based, rat; conditions: 10 nM hormone; continuous stimulation by 50 mM KCl; vs no hormone controls; first order kinetics assumed
Description: Granule neurons were grown for 7 days and rendered hormone free by growth in serum-free medium as detailed above. Coverslips were then placed in a perfusion chamber, mounted on the stage of a laser scanning confocal microscope and perfused at 1 ml/min at 25° C. with perfusion buffer (119 mM NaCl, 2.5 mM KCl, 2 mM CaCl2, 2 mM MgCl2, 25 mM HEPES (pH 7.4), 30 mM glucose, and […] AP-5). The effects of different hormones on synaptic vesicle trafficking were then determined. […] Depolarizing KCl was then removed from the perfusion buffer and the cells were exposed to FM1-43 for an additional 30 seconds to insure complete loading of recycling synaptic vesicles. Loaded cells were then washed free of dye and the cells were perfused for ten minutes at rest.
Images of a single field of neuronal fibers were then taken immediately before adding a second depolarizing solution (perfusion buffer containing 50 mM KCl) and at one and two minutes after beginning the continuous stimulation by 50 mM KCl. Thirty to forty-five individual FM1-43 labeled nerve terminals were identified in the baseline images (taken prior to depolarization) and the change in fluorescence (DF) for each nerve terminal determined at the one and two minute time points. FIGS. 11A and 11B show the results of analysis of the hormone specificity of synaptic vesicle trafficking (FIG. 11A) and the influence of individual myo5a mutants (FIG. 11B) on synaptic vesicle transport in granule neurons.
To evaluate the role of myo5a in synaptic vesicle transport, three different myo5a constructs were introduced into the neurons by replication-deficient adenoviral vectors (Δmyo5a^tail(MyoV^tail), Δmyo5a^c-term(MyoV^1830)and ΔMyo5a^CC(MyoV^cc) see FIG. 5) as described above. […] Neurons were infected with purified Ad5-constructs (MOI=10) 48 hours prior to the synaptic vesicle trafficking study, and allowed to recover in hormone (T4) supplemented medium. […] This modest influence of the VBD mutant on synaptic vesicle retention is likely to be due to the loss of the kinesin-binding domain that limits its delivery to nerve terminals.

[3] = test system: binding of p29 vesicles to F-actin; test: in vitro actin binding assay with BrAc[125I]T4-labeled p29 vesicles; format: biochemical, rat; conditions: 10 nM hormone, 20 minutes at 37° C.
Description: Actin binding of the p29 vesicles was then initiated by addition of 10 nM T4, and the Triton-insoluble (F-actin bound) pellet was separated from the Triton-soluble (vesicle) fraction.
An in vitro binding assay was developed whose principle is based on the hormone dependent redistribution of affinity labeled p29 between the Triton-soluble (vesicle pool) and Triton-insoluble (F-actin cytoskeleton) fractions. The assay was used to examine the hormone dependent relationship between the p29-containing endosome and the F-actin cytoskeleton. Two different pools of astrocytes were prepared. […] The other astrocyte pool was used to prepare affinity BrAc [^125 I]T4-labeled p29 vesicles from thyroid-deficient cells (V-lysate; Farwell et al. 1990, J. Biol. Chem. 265:18546-18553). V-lysates were prepared from cAMP-stimulated astrocytes grown in serum-free media that were labeled with 2 nM BrAc[^125 I]T4 as described in Farwell et al. (1990, J. Biol. Chem. 265:18546-18553). […]
After the incubation, the mixtures were chilled on ice for 2 minutes, then Triton X-100® (0.5% v/v, final) was added and the soluble (Triton supernatant, vesicles) and insoluble (Triton pellet, F-actin) fractions were separated by microfuge centrifugation at 4° C. for 5 minutes. The distribution of [^125 I]-labeled p29 was then determined by SDS PAGE analysis.

D2 activity = conditions: in astrocytes; cited from earlier work

## N[C@@H](Cc1cc(I)c(Oc2cc(I)c(O)c(I)c2)c(I)c1)C(=O)O [T4, thyroxine]
ΔTRα1
  pKd: 9.00 to 9.52
[1]
  pKd: 9.30 to 9.52
ΔTRα2
  pKd: 9.00 to 9.52
astrocytes
  subcellular distribution of TRα2-derived proteins: coalescence of the TRα2-derived proteins around the perinuclear space
[2]
  decrease of the rate of FM1-43 release: 75%
[3]
  radiolabeled p29 bound to the Triton insoluble, F-actin fraction: more than 70%
D2 activity
  quantity of D2 activity: decreases the quantity of D2 activity
